Legend:
Format in all cases: in vivo, Lewis rats
[1] = tested on: resident microglial cells of the retina and ciliary body; test: Anti-IBA-1 immunohistochemistry of resident microglial cells in EIU; details: 24 h after LPS and intravitreal injection, compared to eyes injected with the vehicle
Description: To evaluate the effect of aldosterone on resident microglial cells of the retina and ciliary body, we performed immunohistochemical studies with an anti-IBA-1 antibody coupled with a secondary antibody Alexa488 on cryostat sections 24 h after LPS injection and injection intravitreal aldosterone or spironolactone. […] The anti-inflammatory effect of aldosterone may be related to the deactivation of resident microglial cells.

MIP1α/CCL3 = test: Chemokine/cytokine multiplex assay of ocular media in EIU: MIP1α/CCL3; details: compared with control animals treated with the vehicle alone (FIG. 2)
Description: (§1) Aqueous humor and vitreous collected from each eye were pooled, diluted to obtain a final volume of 25 μL, and subjected to multiplex bead analysis. This method uses microspheres as the solid support for immunoassays (Vignali D A. Multiplexed particle-based flow cytometric assays. J Immunol Methods. 2000; 243:243-255.) and allows the titration of a greater number of cytokines with increased sensitivity than occurs with ELISA (Ooi K G, Galatowicz G, Towler H M, Lightman S L, Calder V L. Multiplex cytokine detection versus ELISA for aqueous humor: IL-5, IL-10, and IFNγ profiles in uveitis. Invest Ophthalmol Vis Sci. 2006; 47:272-277.). The rat cytokine/chemokine LINCO-16plex kit (Linco Research) was purchased from Invitrogen (Cergy-Pontoise, France). Chemokine MIP1α/CCL3, proinflammatory mediator TNF-α, cytokines IFN-γ/IL-4, and IL-6 were measured according to the manufacturer's instructions. The assay was performed in a 96-well filter plate with all the assay components provided in the kit. Standard curves for each cytokine were generated with a calibration kit (Bio-Rad, Hercules, Calif.). All incubation steps were performed at room temperature with medium orbital agitation and in the dark to protect the beads from light. Data acquisition and analysis were performed with the manager software version 4.1 (Bioplex; Bio-Rad) with four or five logistic parameters for standard curves. […]

blood-ocular barrier = test: Proteins present in eye fluids (leaking of the blood-ocular barrier) in EIU; details: at 6 hours, versus vehicle
Excerpt: Proteins present in eye fluids reflect the leaking of the blood-ocular barrier.

IFN-γ/IL-4 = test: Chemokine/cytokine multiplex assay of ocular media in EIU: IFN-γ/IL-4; details: compared with control animals treated with the vehicle alone (FIG. 2)
Description: as §1

macrophages = test: EDI positive cell counts in histological sections (immunohistochemistry) in EIU; details: intravitreal 200 nM, 24 h after LPS, compared to eyes injected vehicle or spironolactone, p<0.05
Description: To evaluate the effect of intravitreal injection of 200 nM aldosterone and spironolactone 10 μM, immunohistochemical studies were performed on cryostat sections. An anti EDI antibody coupled with an Alexa488 secondary antibody was used to mark macrophages which are among the cells most involved in EIU. We conducted an EDI positive cell counts in histological sections 24 h after LPS injection and intravitreal injection of aldosterone or spironolactone.

IL-6 = test: Chemokine/cytokine multiplex assay of ocular media in EIU: IL-6; details: compared with control animals treated with the vehicle alone (FIG. 2)
Description: as §1

TNF-α = test: Chemokine/cytokine multiplex assay of ocular media in EIU: TNF-α; details: compared with control animals treated with the vehicle alone (FIG. 2)
Description: as §1

GR = test: Expression of GR in the iris and ciliary body in EIU (quantitative PCR); details: after intravitreal injection in EIU
Description: (§2) Iris and ciliary body tissues are most involved in the EIU. In an attempt to understand the role of MR and GR in EIU model, we evaluated the expression of these two receptors in quantitative PCR in the iris/ciliary body 3 h, 6 h and 24 h after injection of LPS. We were surprised that the kinetics of MR and GR were not similar. 3 hours after induction of EIU (p<0.001), so before the infiltration of inflammatory cells, there was a decreased expression of MR, which was maintained up to 24 hours (p<0.001). On the contrary the decreased expression of GR was later in the 24th hour (p<0.01). Immunohistochemical studies confirmed the decrease in the rate of receptors in the iris. The decreased expression of MR and GR takes place mainly in the endothelial cells of vessels in the iris and iris stromal cells. At baseline, the binding of endogenous glucocorticoids to MR likely plays a role in anti-inflammatory. The reduction of early MR can be seen as a step prior to the onset of ocular inflammation.
(§3) The expression of MR and GR in the iris and ciliary body is increased after intravitreal injection of aldosterone (p<0.05). […] Presumably, the anti-inflammatory effect of aldosterone in this model is partly due to the increased expression of MR.

MR = test: Expression of MR in the iris and ciliary body in EIU (quantitative PCR); details: after intravitreal injection in EIU, p<0.05
Description: as §2, §3

[2] = tested on: Endotoxin-induced uveitis; test: Endotoxin-induced uveitis, clinical score at slit lamp; details: for severity of uveitis (clinical examination): slit lamp 24 hours after LPS
Description: Female Lewis rats (6- to 8-week old) weighing 230-250 g (Elevage Janvier, Le Genest Saint Isle, France) were used and handled in accordance with the ARVO Statement for the Use of Animals in Ophthalmic and Vision Research. Rats were anesthetized with intramuscular injection of ketamine (75 mg kg^−1; Virbac, Carros Cedex, France) and Largactil (0.5 mg kg^−1; Sanofi-aventis, Paris, France) before ocular injection and ET. At the end of the experiments, rats were anesthetized by intraperitoneal injection of pentobarbital (30 mg kg^−1; Sanofi-aventis) before blood collection by intracardiac puncture and then killed with a lethal dose of pentobarbital.
Endotoxin-induced uveitis was induced by footpad injection of 0.1 ml sterile pyrogen-free saline containing 500 μgkg^−1 LPS (from Salmonella typhimurium; Sigma-Aldrich). Animals were examined by slit lamp during the maximal severity of EIU developing in this model 24 h after the footpad injection. The intensity of clinical ocular inflammation was scored on a scale from 0 to 5 for each eye as described previously (Behar-Cohen F F, Parel J M, Pouliquen Y, Thillaye-Goldenberg B, Goureau O, Heydolph S et al. Iontophoresis of dexamethasone in the treatment of endotoxin-induced-uveitis in rats. Exp Eye Res 1997; 65: 533-545.): grade (0) indicates no inflammation; grade 1 indicates the presence of a minimal iris and conjunctival vasodilation but without the observation of flare or cells in the anterior chamber (AC); grade 2 indicates the presence of moderate iris and conjunctival vessel dilation but without evident flare or cells in the AC; grade 3 indicates the presence of intense iris vessels dilation, flare and less than 10 cells per slit lamp field in the AC; grade 4 indicates the presence of more severe clinical signs than grade 3, with more than 10 cells in the AC with or without the formation of a hypopyon; grade 5 indicates the presence of intense inflammatory reaction, fibrin formation in the AC and total seclusion of the pupil.
Clinical evaluation was performed in a masked manner by two observers. The mean clinical score of the two observers was recorded.
Lewis rats were anesthetized by intraperitoneal injection of 0.15 mL pentobarbital (5.47 g/100 mL saline). Pupils were dilated by instillation of one drop of tropicamide 5%. One drop of tetracaine 1% was administered for local anesthesia. Intravitreal injections (10 μL) of aldosterone (20 nM and 200 nM) and spironolactone (10 μM) were performed in both eyes using sterile syringes fitted with a 30-gauge needle (Microfine; Becton Dickinson AG, Meylan, France). Intravitreal injections were performed simultaneously with EIU induction, as described.
Results are expressed as mean±SEM. The Mann-Whitney U test was used to determine differences between groups. […]

| Structure (SMILES) | state of microglial cells (IBA-1) [1] | MIP1α/CCL3 in the ocular media (MIP1α/CCL3) | rate of protein in eye fluids (blood-ocular barrier) | IFN-γ/IL-4 in the ocular media (IFN-γ/IL-4) | number of macrophages (EDI positive cell counts) (macrophages) | IL-6 in the ocular media (IL-6) | TNF-α in the ocular media (TNF-α) | expression of GR in the iris and ciliary body (GR) | expression of MR in the iris and ciliary body (MR) | severity of uveitis (clinical examination) ([2]; injection 1 nM) | severity of uveitis (clinical examination) ([2]; intravitreal injection 20 nM, p<0.05) | severity of uveitis (clinical examination) ([2]; intravitreal injection 200 nM, p<0.001) | intensity of uveitis (clinical examination) ([2]; intravitreal injection 10 microM, 24 hours) |
| --- | --- | --- | --- | --- | --- | --- | --- | --- | --- | --- | --- | --- | --- |
| C[C@]12CCC(=O)C=C1CC[C@@H]1[C@@H]2[C@@H](O)C[C@]2(C=O)[C@@H](C(=O)CO)CC[C@@H]12 [aldosterone, 11β,21-dihydroxy-3,20-dioxopregn-4-en-18-al] | greater number of microglial cells were then branched into a latent state | significantly reduced | significantly reduced | significantly reduced | decrease in the number of macrophages | significantly reduced | significantly reduced | increased | increased | had no effect | severity decrease statistically significant | severity decrease statistically significant |  |
| CC(=O)S[C@@H]1CC2=CC(=O)CC[C@]2(C)[C@H]2CC[C@@]3(C)[C@@H](CC[C@@]34CCC(=O)O4)[C@H]12 [spironolactone] | larger number of microglial cells were round, and consequently active | significantly increased | had no effect | significantly increased |  | significantly increased | significantly increased | has no effect | exacerbated the decrease in MR |  |  |  | increased the intensity of uveitis |

— patent publication US20150342876A1, “METHODS AND PHARMACEUTICAL COMPOSITIONS FOR THE TREATMENT OF OCULAR INFLAMMATORY DISEASES” (Institut National de la Santé et de la Recherche Médicale …, priority 2011, published 2015)
